Measured values published in publication PMC5812345 (Chemistry (Weinheim an der Bergstrasse, Germany), 2017).

System: U87-stb-CXCR4 cells
Experiment: In vitro binding/uptake of 64Cu-labeled cyclotides to U87-stb-CXCR4 cells
Format: cell-based, human
Conditions: inhibitor at 10 μM

c1cc(CN2CCCNCCNCCCNCC2)ccc1CN1CCCNCCNCCCNCC1 [AMD3100]
Reduction in bound [^64Cu]MCo-CVX-6D in the presence of excess non-radioactive inhibitor: ≈ 30%
